Assay results from paper PMC6930638, “The Masked Polar Group Incorporation (MPGI) Strategy in Drug Design: Effects of Nitrogen Substitutions on Combretastatin and Isocombretastatin Tubulin Inhibitors” (Molecules, 2019).
pIC50: −log10 of the molar value.

Key:
[1] = system: HeLa, HT-29 and MCF-7 human tumor cell lines; assay: Antiproliferative activity over the three human tumor cell lines (MTT); assay type: cell-based; details: Homo sapiens, range over the cell lines, Table S1; read-out: Cytotoxicity range (range of antiproliferative IC50 values)
[2] = system: HeLa cervix epithelioid carcinoma; assay: MTT cell antiproliferative assay, HeLa; assay type: cell-based; details: Homo sapiens, 72 h

pIC50 [2]	SMILES	pIC50 [1]
6.74	COc1cc(C(=O)c2cccc(N(C)C)c2)cc(OC)c1OC [Compound 1f, (3-(Dimethylamino)phenyl)(3,4,5-trimethoxyphenyl)methanone]	6.34 to 6.74
7.74	COc1cc(C(=O)c2ccnc(N3CCCC3)c2)cc(OC)c1OC [Compound 1h, (2-(Pyrrolidin-1-yl)pyridin-4-yl)(3,4,5-trimethoxyphenyl)methanone]	7.15 to 7.77
6.82	C=C(c1ccc(N(C)C)nc1)c1cc(OC)c(OC)c(OC)c1 [Compound 3b, N,N-Dimethyl-5-(1-(3,4,5-trimethoxyphenyl)vinyl)pyridin-2-amine]	6.56 to 7.09
7.24	COc1cc(C=Cc2ccc(N(C)C)nc2)cc(OC)c1OC [Compound 8b, N,N-dimethyl-5-(3,4,5-trimethoxystyryl)pyridin-2-amine]	7.10 to 7.24
